Assays:
[1] = Cytotoxicity against human HO8910 cells after 2 days by alamar blue assay; format: functional, cell-based; conditions: HO-8910, 48 h
[2] = system: SGC-7901; experiment: Cytotoxicity against human SGC7901 cells after 2 days by alamar blue assay; format: functional, cell-based; conditions: SGC-7901, 48 h
[3] = system: HepG2; experiment: Cytotoxicity against human HepG2 cells after 2 days by alamar blue assay; format: functional, cell-based; conditions: HepG2, 48 h
[4] = system: HEK293; experiment: Cytotoxicity against human HEK293 cells after 2 days by alamar blue assay; format: cell-based; conditions: HEK293, 48 h
[5] = Ratio of compound IC50 to 5-Fluorouracil IC50 for human HEK293 cells after 2 days by alamar blue assay; format: ADME, cell-based; conditions: read-out: Ratio IC50
[6] = system: SGC-7901; experiment: Ratio of emodin IC50 to compound IC50 for human SGC7901 cells after 2 days by alamar blue assay; format: functional
[7] = Ratio of compound IC50 to emodin IC50 for human HEK293 cells after 2 days by alamar blue assay; format: ADME, cell-based; conditions: read-out: Ratio IC50

COc1cc(OC)c2c(c1)C(=O)c1cc(C)c(Cn3cc(F)c(=O)n(Cc4ccc5c(c4)OCO5)c3=O)c(OC)c1C2=O
IC50 [1]: > 100 µM
IC50 [2]: > 100 µM
IC50 [3]: 91 µM
IC50 ([4]; read-out: IC50): 30 µM

COc1cc(OC)c2c(c1)C(=O)c1cc(C)c(Cn3cc(F)c(=O)n(Cc4cccc(F)c4)c3=O)c(OC)c1C2=O
IC50 [1]: > 100 µM
IC50 [2]: > 100 µM
IC50 [3]: > 100 µM
IC50 ([4]; read-out: IC50): > 100 µM

Cc1cc(O)c2c(c1)C(=O)c1cc(O)cc(O)c1C2=O [EMODIN]
IC50 [1]: 16 µM
IC50 [2]: 61.3 µM
IC50 [3]: 13.1 µM
IC50 ([4]; read-out: IC50): 1.3 µM

O=c1[nH]cc(F)c(=O)[nH]1 [FLUOROURACIL]
IC50 [1]: 85.5 µM
IC50 [2]: 76 µM
IC50 [3]: 76.7 µM
IC50 [4]: 42.9 µM

COc1cc(OC)c2c(c1)C(=O)c1cc(C)c(Cn3cc(F)c(=O)n(CC=C(C)C)c3=O)c(OC)c1C2=O
IC50 [1]: > 100 µM
IC50 [2]: > 100 µM
IC50 [3]: > 100 µM

COc1cc(OC)c2c(c1)C(=O)c1cc(C)c(Cn3cc(F)c(=O)[nH]c3=O)c(OC)c1C2=O
IC50 [1]: > 100 µM
IC50 [2]: > 100 µM
IC50 [3]: > 100 µM
IC50 ([4]; read-out: IC50): > 100 µM

COc1cc(OC)c2c(c1)C(=O)c1cc(C)c(Cn3cc(F)c(=O)n(C)c3=O)c(OC)c1C2=O
IC50 [1]: > 100 µM
IC50 [2]: > 100 µM
IC50 [3]: > 100 µM

COc1cc(OC)c2c(c1)C(=O)c1cc(C)c(Cn3cc(F)c(=O)n(Cc4ccccc4F)c3=O)c(OC)c1C2=O
IC50 [1]: 91.1 µM
IC50 [2]: 61 µM
IC50 [3]: > 100 µM
IC50 ([4]; read-out: IC50): 66.6 µM
selectivity ratio at 48 h [5]: 1.5

COc1cc(OC)c2c(c1)C(=O)c1cc(C)c(Cn3cc(F)c(=O)n(Cc4ccccc4C#N)c3=O)c(OC)c1C2=O
IC50 [1]: 22.6 µM
IC50 [2]: 21.4 µM
IC50 [3]: 39.9 µM
Ratio IC50 [6]: 3
IC50 ([4]; read-out: IC50): 29.6 µM
selectivity ratio at 48 h [7]: 23

C/C=C/Cn1c(=O)c(F)cn(Cc2c(C)cc3c(c2OC)C(=O)c2c(OC)cc(OC)cc2C3=O)c1=O
IC50 [1]: > 100 µM
IC50 [2]: > 100 µM
IC50 [3]: > 100 µM

CCCCn1c(=O)c(F)cn(Cc2c(C)cc3c(c2OC)C(=O)c2c(OC)cc(OC)cc2C3=O)c1=O
IC50 [1]: > 100 µM
IC50 [2]: > 100 µM
IC50 [3]: > 100 µM

COc1cc(OC)c2c(c1)C(=O)c1cc(C)c(Cn3cc(F)c(=O)n(Cc4ccccc4)c3=O)c(OC)c1C2=O
IC50 [1]: 45.1 µM
IC50 [2]: 39.5 µM
IC50 [3]: > 100 µM
Ratio IC50 [6]: 1.5
IC50 ([4]; read-out: IC50): > 100 µM

CCn1c(=O)c(F)cn(Cc2c(C)cc3c(c2OC)C(=O)c2c(OC)cc(OC)cc2C3=O)c1=O
IC50 [1]: > 100 µM
IC50 [2]: > 100 µM
IC50 [3]: > 100 µM

COc1cc(OC)c2c(c1)C(=O)c1cc(C)c(Cn3cc(F)c(=O)n(CCc4ccccc4)c3=O)c(OC)c1C2=O
IC50 [1]: 11.6 µM
IC50 [2]: > 100 µM
IC50 [3]: 68.6 µM
IC50 ([4]; read-out: IC50): 4.6 µM
